Values quoted from earlier work, collected in patent publication US20090117146A1 (priority 2005, published 2009).

Test system: adenyl cyclase
Conditions: follicles of scalp hair

| Structure (SMILES) | effect on adenyl cyclase activity |
| --- | --- |
| C[C@]12CCC(=O)C[C@@H]1CC[C@@H]1[C@@H]2CC[C@]2(C)[C@@H](O)CC[C@@H]12 [dihydrotestosterone] | inhibits adenyl cyclase activity |
| C[C@]12CC[C@H]3[C@@H](CCC4=CC(=O)CC[C@@]43C)[C@@H]1CC[C@@H]2O [testosterone] | does not |
